Results reported in patent US10392428B2, “GLP-1 derivatives and uses thereof” (Novo Nordisk A/S, priority 2014, dated 2019).

Legend:
[1] = tested on: obese, diabetic mouse model (db/db mice); assay: Pharmacodynamic study in db/db mice: acute effect on blood glucose and body weight; type: in vivo
Experimental: The purpose of the study is to verify the acute effect of the GLP-1 derivatives on blood glucose (BG) and body weight (BW) in a diabetic setting.
The GLP-1 derivatives of Examples 2-4 and 6-10 were tested in a single-dose study in an obese, diabetic mouse model (db/db mice) as described in the following.
Six db/db mice per compound to be tested (from Taconic, Denmark), fed from birth with the diet NIH31 (NIH 31M Rodent Diet, commercially available from Taconic Farms, Inc., US, see www.taconic.com), were enrolled for the study at the age of approximately 10 weeks. At arrival to the animal facility the mice were given free access to standard chow (e.g. Altromin 1324, Brogaarden, Denmark) and tap water and kept at 24° C. After 1-2 weeks of acclimatisation, the basal blood glucose was assessed twice on two consecutive days (i.e. at 9 am). The mice were allocated to treatment groups based on matching blood glucose levels and body weights. […]
On the day of dosing, blood glucose was assessed at time −½ h (8.30 am), the mice were weighed after this. […] On the day of dosing, blood glucose was assessed at times 1, 2, 4 and 8 h (10 am, 11 am, 1 pm and 5 pm) after dosing.
On the following days, the blood glucose was assessed at time 24 h, 48 h, 72 h, and 96 h (all Example compounds), and for the GLP-1 derivatives of Examples […] blood glucose was further assessed daily up to 240 h after dosing. […]
Samples for the measurement of blood glucose were obtained from the tail tip capillary of conscious mice. […] The glucose concentration was measured using the glucose oxidase method (glucose analyser Biosen 5040, EKF Diagnostic, GmbH, Germany). […]
The data are presented as percent change in blood glucose or body weight measured at the 48 h time points. For example, the percent change in blood glucose level at 48 h for each individual is calculated as follows: [[(blood glucose level at 48 h)−(basal blood glucose level)]/(basal blood glucose level)]×100%], where basal blood glucose level refers to the level before the administration of any treatment−and vice versa for the body weight change. […]

[2] = target: T1, human GLP-1 receptor (Homo sapiens, UniProt P43220); assay: GLP-1 receptor binding: competitive binding assay (125I-GLP-1, SPA) on isolated membranes at low and high HSA; conditions: low HSA (max. 0.001% final assay concentration); read-out: Low HSA IC50
T1 construct: expressed in transfected cells; host or cells: membrane preparation from BHK cells, clone FCW467-12A (parent line BHKTS13)
Experimental: The purpose of this example is to test the receptor binding of the GLP-1 derivatives in vitro. The receptor binding is a measure of affinity of a derivative for the human GLP-1 receptor.
Each derivative is added in a series of concentrations to isolated membranes containing the human GLP-1 receptor and displacement of the labelled ligand is monitored. The receptor binding is reported as the concentration at which half of the labelled ligand is displaced from the receptor, the IC50 value.
Buffer 1 consisted of 20 mM Na-HEPES plus 10 mM EDTA and pH was adjusted to 7.4. Buffer 2 consisted of 20 mM Na-HEPES plus 0.1 mM EDTA and pH was adjusted to 7.4. Assay buffer consisted of 50 mM HEPES supplemented with 5 mM EGTA, 5 mM MgCl2, 0.005% Tween 20 and pH was adjusted to 7.4. An 8% albumin stock consisted of HSA dissolved at 8% (w/v) in assay buffer. An 0.02% albumin stock consisted of HSA dissolved at 0.02% (w/v) in assay buffer.
The cells express the human GLP-1 receptor.
The cells were grown at 5% CO2 in DMEM, 10% fetal calf serum, 1% Pen/Strep (Penicillin/Streptomycin) and 1.0 mg/ml of the selection marker G418.
To make a membrane preparation the cells were grown to approximately 80% confluence. The cells were washed twice in phosphate-buffered saline and harvested. The cells were pelleted using a brief centrifugation and the cell pellet was kept on ice. […] The homogenate was centrifuged for 15 minutes. The pellet was re-suspended (homogenised) in 10 ml buffer 2 and centrifuged. This step was repeated once more. The resulting pellet was re-suspended in buffer 2 and the protein concentration was determined. The membranes were aliquoted and stored at minus 80° C.
For the receptor binding assay in the presence of low HSA (0.005%) 50 μl of the assay buffer was added to each well of an assay plate.
For the receptor binding assay in the presence of high HSA (2%) 50 μl of the 8% albumin stock was added to each well of an assay plate.
Cell membrane aliquots were thawed and diluted to their working concentration. Fifty μl were added to each well in the assay plate.
WGA SPA beads were suspended in assay buffer at 20 mg/ml. The suspension was diluted to 10 mg/ml in assay buffer just prior to addition to the assay plate. Fifty μl were added to each well in the assay plate.
A 25 μl aliquot was reserved for measuring total counts/well.
The assay plate was incubated for 2 h at 30° C.
The assay plate was centrifuged for 10 min.
The assay plate was read in a Packard TopCount NXT instrument.
The data from the TopCount instrument were transferred to Graph Pad Prism software. Individual replicates were analysed using non-linear regression. IC50 values were calculated by the software and reported in nM. The reported values are averages of all of the measured values for each compound.

[3] = target: T1, human GLP-1 receptor; assay: In vitro potency: CRE luciferase reporter gene assay in BHK cells expressing the human GLP-1 receptor; type: cell-based; conditions: whole cell reporter gene assay, 3 h incubation, average of at least two replicates
Experimental: The purpose of this example is to test the activity, or potency, of the GLP-1 derivatives in vitro. The in vitro potency is the measure of human GLP-1 receptor activation in a whole cell assay.
In vitro potency was determined by measuring the response of the human GLP-1 receptor in a reporter gene assay. The assay was performed in a stably transfected BHK cell line that expresses the human GLP-1 receptor and contains the DNA for the cAMP response element (CRE) coupled to a promoter and the gene for firefly luciferase (CRE luciferase). When the human GLP-1 receptor is activated it results in the production of cAMP, which in turn results in the luciferase protein being expressed. When assay incubation is completed the luciferase substrate (luciferin) is added and the enzyme converts luciferin to oxyluciferin to produce bioluminescence. The luminescence is measured as the readout for the assay.
The cells were cultured at 5% CO2 in cell culture medium. They were aliquoted and stored in liquid nitrogen. Before each assay an aliquot was taken up and washed twice in PBS before being suspended at the desired concentration in the assay specific buffer.
Assay medium consisted of DMEM w/o phenol red, 10 mM Hepes and 1χ Glutamax. The assay buffer consisted of 2% ovalbumin and 0.2% Pluronic F-68 in assay medium.
1) Cell stocks were thawed in a 37° C. water bath.
2) Cells were washed three times in PBS.
3) Cells were counted and adjusted to 5×10^3 cells/50 μl (1×10^5 cells/ml) in assay medium. A 50 μl aliquot of cells was transferred to each well in the assay plate.
4) Stocks of the test compounds and reference compounds were diluted to a concentration of 0.2 μM in assay buffer. […] 8) A 100 μl aliquot of steadylite plus reagent was added to each well of the assay plate. […] 10) Each assay plate was read in a BioTek Synergy 2 Multi-Mode Reader.
The data from the BioTek Synergy 2 Multi-Mode Reader were transferred to GraphPad Prism software. […]
A minimum of two replicates was measured for each sample. The reported EC50 values are averages of all of the measured values for each compound.

[4] = single s.c. dose 10 nmol/kg, 48 h vs basal

T1 sequence (P43220 24-463): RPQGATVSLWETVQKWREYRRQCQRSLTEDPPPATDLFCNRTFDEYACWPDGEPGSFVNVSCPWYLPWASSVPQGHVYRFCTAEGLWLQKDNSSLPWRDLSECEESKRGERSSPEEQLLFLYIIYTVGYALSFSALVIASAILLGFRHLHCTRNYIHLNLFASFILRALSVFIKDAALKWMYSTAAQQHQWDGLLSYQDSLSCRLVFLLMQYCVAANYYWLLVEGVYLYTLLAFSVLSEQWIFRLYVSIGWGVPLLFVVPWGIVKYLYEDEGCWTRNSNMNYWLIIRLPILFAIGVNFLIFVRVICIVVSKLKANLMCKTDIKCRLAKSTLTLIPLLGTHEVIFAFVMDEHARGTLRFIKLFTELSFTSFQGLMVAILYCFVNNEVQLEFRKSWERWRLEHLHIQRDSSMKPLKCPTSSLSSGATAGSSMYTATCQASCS

IC50 [2]: 19 nM
EC50 [3]: 0.15 nM
SMILES: CC[C@H](C)[C@H](NC(=O)[C@H](Cc1ccccc1)NC(=O)[C@H](CCC(=O)O)NC(=O)[C@H](CCCNC(=N)N)NC(=O)[C@H](C)NC(=O)[C@H](C)NC(=O)[C@H](CCC(N)=O)NC(=O)[C@H](CCC(=O)O)NC(=O)[C@H](CCC(=O)O)NC(=O)[C@H](CC(C)C)NC(=O)[C@H](Cc1ccc(O)cc1)NC(=O)[C@H](CO)NC(=O)[C@H](CO)NC(=O)[C@@H](NC(=O)[C@H](CC(=O)O)NC(=O)[C@H](CO)NC(=O)[C@@H](NC(=O)[C@H](Cc1ccccc1)NC(=O)[C@@H](NC(=O)CNC(=O)[C@H](CCC(=O)O)NC(=O)C(C)(C)NC(=O)[C@@H](N)Cc1c[nH]cn1)[C@@H](C)O)[C@@H](C)O)C(C)C)C(=O)N[C@@H](C)C(=O)N[C@@H](Cc1c[nH]c2ccccc12)C(=O)N[C@@H](CC(C)C)C(=O)N[C@H](C(=O)N[C@@H](CCCNC(=N)N)C(=O)NCC(=O)N[C@@H](CCCNC(=N)N)C(=O)N[C@@H](CCCCNC(=O)[C@@H](N)CCCCNC(=O)[C@@H](N)CCCCNC(=O)[C@@H](N)CCCCNC(=O)[C@@H](N)CCCCNC(=O)[C@H](CCCCNC(=O)CC[C@H](NC(=O)[C@H]1CC[C@H](CNC(=O)CCCCCCCCCCCCCCCCCCC(=O)O)CC1)C(=O)O)NC(=O)CC[C@H](NC(=O)[C@H]1CC[C@H](CNC(=O)CCCCCCCCCCCCCCCCCCC(=O)O)CC1)C(=O)O)C(=O)O)C(C)C [Example 10, N{Epsilon-37}-[(2S)-2-amino-6-[[(2S)-2-amino-6-[[(2S)-2-amino-6-[[(2S)-2-amino-6-[[(2S)-2,6-bis[[(4S)-4-carboxy-4-[[4-[(19-carboxynonadecanoylamino)methyl]cyclohexanecarbonyl]amino]butanoyl]amino]hexanoyl]amino]hexanoyl]amino]hexanoyl]amino]hexanoyl]amino]hexanoyl]-[Aib8,Glu22,Arg26,Arg34,Lys37]-GLP-1-(7-37)-peptide]
effect on BG ([1]; after 48 h, single s.c. injection of either 3, 10 or 30 nmol/kg): not as pronounced
% change in blood glucose [1, 4]: −3%
% change in body weight [1, 4]: −3%
